# Where a name gives a salt, the structure may show the parent alone.
# Assays:
# YTS F-tractin GFP cells = test: NKIS area of YTS F-tractin GFP cells spread over antibody-coated coverslips; format: cell-based; conditions: 25 μM Y-27 or 1 μM JAS; anti-CD28 or anti-KIR1
# Procedure: FIGS. 5E-5H. show analyses of NKIS area and ARF in the activating vs. inhibitory NKIS in the presence of Y-27632 (Y-27) inhibitor of myosin light chain (MLC) phosphorylation and/or JAS. In FIG. 5E is live cell imaging of YTS-2DL1 cells expressing F-tractin GFP treated with 25 μM Y-27 (anti-CD28: n=6 movies; anti-KIR1: n=6 movies). […] In FIG. 5F are YTS F-tractin GFP cells treated with 25 μM Y-27 or left untreated. Cells were seeded over coverslips pre-coated with anti-CD28 or anti-KIR1 and allowed to spread at 37° C. for 10 min before fixation, and 1 μM JAS was added 5 min after initial spreading. NKIS area was determined using ImageJ. […]
# Chambered cover glasses (LabTek) were cleaned by treatment with 1 M HCl, 70% ethanol for 30 min and dried at 60° C. for 30 min. […] The NK and target cells in the conjugates were distinguished based on fluorescence signal, in which the target cells expressed mCherry and the NK cells expressed various YFP, CFP or GFP tagged proteins. […] The relative fluorescence intensity of the proteins at the synapse was determined by measuring the ratio between fluorescence intensity at the NKIS relative to a non-NKIS site using ImageJ. […]
# SHP-1 = test: PTP assay: SHP-1 catalytic activity (pNPP hydrolysis) after treatment of NK-target cell conjugates; format: cell-based; conditions: inhibited NK cells (YTS-2DL1 + 221-Cw4), untreated 100±2.8%; 1 μM JAS, 25 μM Y-27
# Procedure: YTS-2DL1 cells were pretreated with 25 μM Y-27 or left untreated. Cells were incubated at 37° C. with target cells for 5 min, 1 μM of JAS was added, and samples were incubated for 5 minutes before lysis. IP of SHP-1 was performed, and precipitates were incubated with pNpp. SHP-1 activity was determined by measuring absorbance at 405 nm. The graph represents rates of SHP-1 catalytic activity from three independent experiments.
# In FIG. 8E, YTS-2DL1 cells were incubated at 37° C. with 221-Cw4 or Cw7 cells for 5 min, treated with 0.5 μM of CytD or left untreated, and SHP-1 activity was determined as detailed in the Materials and Methods. Graph summarizing percent of relative SHP-1 catalytic activity obtained by four independent experiments. Data are means±SEM.
# SHP-1 catalytic activity was determined by measuring the hydrolysis of the exogenous substrate p-Nitrophenyl Phosphate (pNPP) by SHP-1, as previously described. NK cells (2-5×10^6) were incubated with target cells at ratio of 1:1, activated as described above, and lysed with passive ice-cold lysis buffer (1% Brij, 1% n-Octyl-b-D-glucoside, 50 mM Tris-HCl, pH 7.4, 150 mM NaCl, 5 mM ethylenediaminetetraacetic acid, and complete protease inhibitor tablets). Cell lysates were subjected to IP with anti-SHP-1 antibody. […] Reactions were terminated by adding 800 μl 1M NaOH, and SHP-1 activity was determined by measuring absorbance at 405 nm.
smiles,measurement,setting,value
"C[C@@H](N)C1CCC(C(=O)Nc2ccncc2)CC1 (stereo partly drawn) [Formula Y-27, 4-[(1R)-1-aminoethyl]-N N-4-pyridinyl-trans-cyclohexanecarboxamide, dihydrochloride]",NKIS area / NK contact area,YTS F-tractin GFP cells,significantly enlarged NKIS area
same,SHP-1 catalytic activity,SHP-1,66.4±1.1%
